Assays:
[1] = tested on: interleukin 5 (IL-5) production; test: Cytokine production inhibitory effect: IL-5 production by murine spleen cells treated with anti-mouse CD3 antibody and IL-2 (ELISA); assay type: cell-based, Balb/c mice; settings: anti-CD3 antibody + IL-2, 40 to 48 hours, read-out: IL-5 production inhibitory ratio (%); for inhibition at 100 ppm: test compound 100 ppm
Experimental: (§1) Murine spleen cells were treated with anti-mouse CD3 antibody and IL-2 to induce cytokine production. The test compounds were added to the cytokine production system to evaluate their inhibitory effect. Namely, anti-mouse CD3 antibody adjusted to from 10 to 20 μg/ml with borate buffered physiological saline (pH 8.5) was pipetted into a 96-well cell culture plate in an amount of 50 μl/well and left to stand at 4° C. for 18 hours. The unreacted solution was removed, washing with Hank's buffer solution was carried out once, and IL-2 adjusted to 10 ng/ml with a RPMI liquid containing 10% fetal bovine serum (FCS) was pipetted in an amount of 50 μl/well. For the negative control group, a solution alone without anti-CD3 antibody nor IL-2 was applied. Then, the diluted solution of each of the test compounds (concentration: 100 ppm unless otherwise specified) was pipetted in an amount of 50 μl/well, and a cell suspension of 1×10^7 cells/ml, prepared from spleen of Balb/c mice (female, 7 to 10 week old) was pipetted thereinto in an amount of 100 μl/well. After cultivation in an incubator (37° C., 5% carbon dioxide gas) for from 40 to 48 hours, the culture supernatant was recovered to measure the cytokine production amount by ELISA method.
(§2) With respect to interleukin 5 (IL-5) as a typical Th2 type cytokine and interferon γ (IFN-γ) as a typical Th1 type cytokine, measurements were carried out by the following methods, respectively. Namely, quantitative determination of IL-5 was carried out by the following ELISA method. First, rat anti-mouse IL-5 antibody (Endogen Code No. MM-550C) as a primary antibody was diluted with carbonate buffer solution (pH 9.5) to 1 μg/ml, and spread in a 96 well plate (IWAKI, Code No. 3860-096) in an amount of 50 μl/well for coating at 4° C. overnight (16 to 24 hours). Then, the plate was subjected to blocking at 37° C. for 2 hours by phosphate buffered physiological saline containing 10% FCS (pH 7.2) (blocking buffer solution) (250 μl/well). The plate was washed with PBS (washing buffer) containing 0.05% Tween 20 (Nacalai Tesque, Code No. 281-51) four times, and a diluted liquid of the culture supernatant was spread in an amount of 50 μl/well, followed by incubation at room temperature for 1 hour. For preparation of a standard line, recombinant mouse IL-5 (R&D systems, Code No. 405-ML) was employed. The plate was washed with a washing buffer four times, and biotin-labeled rat anti-mouse IL-5 antibody (Pharmingen, Code No. 18062D) as a secondary antibody diluted to 0.5 μg/ml with a blocking buffer containing 0.05% Tween 20 was added thereto (50 μl/well), followed by incubation at room temperature for 1 hour. The plate was washed with a washing buffer four times, strept avidin-labeled peroxidase (ProZyme, Code No. CJ30H001) diluted 800 times with a blocking buffer containing 0.05% Tween 20 was added thereto (50 μl/well), followed by reaction at room temperature for 15 minutes. The plate was washed with a washing buffer four times, and a […] substrate solution (SIGMA, Code No. T-8665) was added thereto in an amount of 100 μl/well for color developing for from 10 to 20 minutes. A 1M sulfuric acid solution was added thereto in an amount of 100 μl/well to terminate the reaction, and absorption (wavelength 450 nm) was measured by means of micro plate reader (SPECTRA max, Wako Pure Chemicals Industries, Ltd.). Quantitative determination of IFN-γ was carried out in the same manner as the measurement of IL-5, employing rat anti-mouse IFN-γ antibody (Pharmingen, Code No. 18181D) and biotin labeled rat anti-mouse IFN-γ antibody (Pharmingen, Code NO. 18112D), as a primary antibody and a secondary antibody, respectively. For preparation of a standard line, recombinant mouse IFN-γ (GENZYME, Code No. 3485) was employed. The experiment was carried out in duplicate, and the average of the cytokine production amount was obtained. […]

[2] = tested on: interferon γ (IFN-γ) production; test: Cytokine production inhibitory effect: IFN-γ production by murine spleen cells treated with anti-mouse CD3 antibody and IL-2 (ELISA); assay type: cell-based, Balb/c mice; settings: anti-CD3 antibody + IL-2, 40 to 48 hours, read-out: IFN-γ production inhibitory ratio (%); for inhibition at 100 ppm: test compound 100 ppm
Experimental: as §1, §2

Structure (SMILES) | melting point [°C] | inhibition at 100 ppm [1] [%] | inhibition at 100 ppm [2] [%] | inhibition at 2 ppm ([1]; test compound 2 ppm) [%] | inhibition at 2 ppm ([2]; test compound 2 ppm) [%]
COc1cccc(C(=O)Nc2ccc(Oc3ccc(C(F)(F)F)cn3)c(Cl)c2)c1 [Compound No. 10] | 103 to 105 | 100 | 100 | – | –
O=C(Nc1ccc(Oc2ccc(C(F)(F)F)cn2)c(Cl)c1)c1ccc(F)cc1 [Compound No. 12] | 174 to 176 | 33 | – | – | –
O=C(Nc1ccc(Oc2ccc(C(F)(F)F)cn2)c(Cl)c1)c1ccccc1F [Compound No. 13] | 141 to 143 | 36 | – | – | –
O=C(Nc1ccc(Oc2ccc(C(F)(F)F)cn2)c(Cl)c1)c1ccc(Cl)cc1 [compound 5] | 186 to 188 | 76 | 83 | – | –
O=C(Nc1ccc(Oc2ccc(C(F)(F)F)cn2)c(Cl)c1)c1ccc(F)cc1F [compound 11] | 145 to 147 | 37 | – | – | –
O=C(Nc1ccc(Oc2ccc(C(F)(F)F)cn2)c(Cl)c1)c1ccccc1 [compound 14] | 170 to 172 | 46 | – | – | –
O=C(Nc1ccc(Oc2ccc(C(F)(F)F)cn2)c(Cl)c1)c1cc(Cl)cc(Cl)c1O [compound 16] | 176 to 178 | 100 | – | – | –
Cc1ccccc1NC(=O)c1cc([N+](=O)[O-])ccc1Cl [compound 19] | – | 96 | 88 | – | –
O=C(Nc1ccccc1C(F)(F)F)c1cc([N+](=O)[O-])ccc1Cl [compound 39] | – | 97 | 100 | – | –
O=C(Nc1ccc(Nc2ccccc2)cc1)c1cc([N+](=O)[O-])ccc1Cl [compound 65] | – | 100 | 100 | – | –
O=C(Nc1ccc(Oc2ccc(C(F)(F)F)cn2)c(Cl)c1)c1ccccc1Cl [compound 71] | 168 to 169 | 89 | – | – | –
O=C(Nc1ccc(Oc2ccc(C(F)(F)F)cn2)c(Cl)c1)c1ccc(Oc2ccc(C(F)(F)F)cn2)c(Cl)c1 [compound 72] | 206 to 209 | 51 | – | – | –
O=C(Nc1ccc(Oc2ccc(C(F)(F)F)cc2Cl)cc1)c1cc([N+](=O)[O-])ccc1F [compound 95] | – | 100 | 100 | – | –
Cc1cc(C23CC4CC(CC(C4)C2)C3)ccc1N(C)C(=O)c1cc([N+](=O)[O-])ccc1Cl [compound 102] | – | 100 | 100 | – | –
O=C(Nc1ccc([S+]([O-])c2ncc(C(F)(F)F)cc2Cl)cc1)c1cc([N+](=O)[O-])ccc1Cl (stereo not drawn) [compound 103] | – | 100 | 100 | – | –
O=C(Nc1ccc(S(=O)(=O)c2ncc(C(F)(F)F)cc2Cl)cc1)c1cc([N+](=O)[O-])ccc1Cl [compound 104] | – | 100 | 100 | – | –
O=C(Nc1ccc(Oc2ncc(C(F)(F)F)cc2Cl)c(C2CCCCC2)c1)c1cc([N+](=O)[O-])ccc1Cl [compound 114] | – | 100 | 100 | – | –
O=C(Nc1ccc(OC2C3CC4CC(C3)CC2C4)nc1)c1cc([N+](=O)[O-])ccc1Cl (stereo not drawn) [compound 124] | – | 100 | 100 | – | –
O=C(Nc1ccc(OC23CC4CC(CC(C4)C2)C3)cc1)c1cc([N+](=O)[O-])ccc1Cl [compound 134] | – | 97 | 98 | – | –
O=C(Nc1ccc(NC23CC4CC(CC(C4)C2)C3)nc1)c1cc([N+](=O)[O-])ccc1Cl [compound 147] | – | 99 | 100 | – | –

Further lines, with some results ahead:

melting point [°C] | Structure (SMILES) | inhibition at 100 ppm [1] [%] | inhibition at 100 ppm [2] [%] | inhibition at 2 ppm ([1]; test compound 2 ppm) [%] | inhibition at 2 ppm ([2]; test compound 2 ppm) [%]
219 | Cc1cc(C23CC4CC(CC(C4)C2)C3)ccc1NC(=O)c1cc([N+](=O)[O-])ccc1Cl [Compound No. 1] | 96 | 90 | – | –
220 to 226 | Cc1cc(-c2nc3ccccc3s2)ccc1NC(=O)c1cc([N+](=O)[O-])ccc1Cl [Compound No. 2] | – | – | 74 | 84
173 | COc1ccc([N+](=O)[O-])c(OC)c1C(=O)Nc1cc(Cl)cc(Cl)c1 [Compound No. 4] | 47 | 76 | – | –
128 | O=C(Nc1ccc(Oc2ccccc2)cc1)c1cc([N+](=O)[O-])ccc1Cl [Compound No. 27, N-(4-phenoxyphenyl)-2-chloro-5-nitrobenzamide] | 96 | 99 | – | –
229 | Cc1cc(C23CC4CC(CC(C4)C2)C3)ccc1NC(=O)c1cc([N+](=O)[O-])ccc1Br [Compound No. 46, N-(4-(1-adamantyl)-2-methylphenyl)-2-bromo-5-nitrobenzamide] | 100 | 98 | – | –
238 | Cc1cc(C23CC4CC(CC(C4)C2)C3)ccc1NS(=O)(=O)c1cc([N+](=O)[O-])ccc1Cl [Compound No. 48, N-(4-(1-adamantyl)-2-methylphenyl)-2-chloro-5-nitrobenzenesulfonamide] | 100 | 100 | – | –
230 to 232 | Cc1cc(NC(=O)c2cc([N+](=O)[O-])ccc2Cl)ccc1Oc1ncc(C(F)(F)F)cc1Cl [Compound No. 106, N-(4-(3-chloro-5-trifluoromethyl-2-pyridyloxy)-3-methylphenyl)-2-chloro-5-nitrobenzamide] | 83 | 96 | – | –
98 to 105 | O=C(Nc1ccc(OC23CC4CC(CC(C4)C2)C3)nc1)c1cc([N+](=O)[O-])ccc1Cl [Compound No. 123, N-(2-(1-adamantyloxy)-5-pyridyl)-2-chloro-5-nitrobenzamide] | 100 | 100 | – | –
165 to 167 | O=C(Nc1ccc(Oc2ncc(C(F)(F)F)cc2Cl)c(-n2cccc2)c1)c1cc([N+](=O)[O-])ccc1Cl [Compound No. 127, N-(4-(3-chloro-5-trifluoromethyl-2-pyridyloxy)-3-(1-pyrrolyl)phenyl)-2-chloro-5-nitrobenzamide] | 100 | 100 | – | –
193 to 195 | O=C(Nc1ccc(OCc2ncc(C(F)(F)F)cc2Cl)cc1)c1cc([N+](=O)[O-])ccc1Cl [Compound No. 135, N-(4-(3-chloro-5-trifluoromethyl-2-pyridylmethyloxy)phenyl)-2-chloro-5-nitrobenzamide] | 62 | 33 | – | –
211 | Cc1cc(C23CC4CC(CC(C4)C2)C3)ccc1NC(=O)c1ccc(Cl)cc1Cl [compound 3] | 79 | 92 | – | –
200 | Cc1cc(C23CC4CC(CC(C4)C2)C3)ccc1NS(=O)(=O)c1cc(Cl)ccc1Cl [compound 24] | 100 | – | – | –
233 to 236 | O=C(Nc1ccc(Oc2ncc(C(F)(F)F)cc2Cl)c([N+](=O)[O-])c1)c1cc([N+](=O)[O-])ccc1Cl [compound 108] | – | – | – | –
